Legend:
NCI-H1650 [1] = experiment: Induction of apoptosis in human NCI-H1650 cells assessed as viable cells measured at 1 uM for 24 hrs by annexin V-PI staining based flow cytometric analysis (reference value: 87.4%); assay type: functional; details: read-out: Activity
PC-3 = experiment: cells; details: Homo sapiens, PC-3, 72 h
Description: Antiproliferative activity against human PC-3 cells incubated for 72 hrs by MTT assay

NCI-H1650 [2] = experiment: Induction of cell cycle arrest in human NCI-H1650 cells assessed as accumulation of cells in S phase measured at 4 uM for 24 hrs by annexin V-PI staining based flow cytometric analysis (reference value: 29.97%); assay type: functional
NCI-H1650 [3] = experiment: Antitumor activity against human NCI-H1650 cells xenografted in mouse assessed as reduction of tumor weight at 20 mg/kg, po for 21 days relative to control; assay type: ADME, organism-based; set-up: scale not given: the % may be the effect or the level left; details: in vivo, 504 h, time 21 day
MCF7 = experiment: cells; details: Homo sapiens, MCF7, 72 h
Description: Antiproliferative activity against human MCF7 cells incubated for 72 hrs by MTT assay

NCI-H1650 [4] = experiment: Induction of apoptosis in human NCI-H1650 cells assessed as early apoptotic cells measured at 4 uM for 24 hrs by annexin V-PI staining based flow cytometric analysis (reference value: 11.2%); assay type: functional
NCI-H1650 [5] = experiment: Induction of apoptosis in human NCI-H1650 cells assessed as apoptotic cells measured at 1 uM for 24 hrs by annexin V-PI staining based flow cytometric analysis (reference value: 12.7%); assay type: functional
NCI-H1650 [6] = experiment: Induction of apoptosis in human NCI-H1650 cells assessed as late apoptotic cells measured at 2 uM for 24 hrs by annexin V-PI staining based flow cytometric analysis (reference value: 1.46%); assay type: functional
[7] = molecular target: T1, MAO-A (amine oxidase [flavin-containing] A) (Homo sapiens, UniProt P21397); experiment: Inhibition of recombinant MAO-A (unknown origin) using luciferin derivative as substrate measured at 1 uM for 60 mins by plate reader analysis relative to control; details: probe luciferin derivative
T1 sequence (P21397 whole entry): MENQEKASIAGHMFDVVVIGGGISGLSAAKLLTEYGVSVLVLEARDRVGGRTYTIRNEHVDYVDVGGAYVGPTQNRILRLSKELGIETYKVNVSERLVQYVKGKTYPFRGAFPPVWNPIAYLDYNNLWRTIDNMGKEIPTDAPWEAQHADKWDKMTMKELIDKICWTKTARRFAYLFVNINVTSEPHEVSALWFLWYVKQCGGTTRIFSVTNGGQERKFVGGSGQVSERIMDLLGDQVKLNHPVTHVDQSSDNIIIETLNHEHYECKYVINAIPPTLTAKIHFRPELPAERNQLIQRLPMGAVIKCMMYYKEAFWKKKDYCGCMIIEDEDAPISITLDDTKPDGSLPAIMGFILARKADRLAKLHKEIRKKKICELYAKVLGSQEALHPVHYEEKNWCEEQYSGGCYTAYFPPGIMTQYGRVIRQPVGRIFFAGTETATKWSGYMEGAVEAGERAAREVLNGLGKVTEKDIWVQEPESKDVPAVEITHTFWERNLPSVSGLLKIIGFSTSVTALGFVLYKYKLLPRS

NCI-H1650 [8] = experiment: Induction of apoptosis in human NCI-H1650 cells assessed as late apoptotic cells measured at 4 uM for 24 hrs by annexin V-PI staining based flow cytometric analysis (reference value: 1.46%); assay type: functional
NCI-H1650 [9] = experiment: Induction of apoptosis in human NCI-H1650 cells assessed as viable cells measured at 4 uM for 24 hrs by annexin V-PI staining based flow cytometric analysis (reference value: 87.4%); assay type: functional; details: read-out: Activity
A549 = experiment: cells; details: Homo sapiens, A549, 72 h
Description: Antiproliferative activity against human A549 cells incubated for 72 hrs by MTT assay

[10] = Toxicity in mouse xenografted with human NCI-H1650 cells assessed as increase in survival rate at 10 to 20 mg/kg, po treated for 21 days measured every 10 days for 50 days; assay type: organism-based; details: in vivo, 504 h, dose 10-20 mg/kg, time 21 day
NCI-H1650 [11] = experiment: Induction of apoptosis in human NCI-H1650 cells assessed as apoptotic cells measured at 4 uM for 24 hrs by annexin V-PI staining based flow cytometric analysis (reference value: 12.7%); assay type: functional
NCI-H1650 [12] = experiment: Induction of cell cycle arrest in human NCI-H1650 cells assessed as accumulation of cells in G2 phase measured at 1 uM for 24 hrs by annexin V-PI staining based flow cytometric analysis (reference value: 18.00%); assay type: functional
NCI-H1650 [13] = experiment: Induction of apoptosis in human NCI-H1650 cells assessed as apoptotic cells measured at 2 uM for 24 hrs by annexin V-PI staining based flow cytometric analysis (reference value: 12.7%); assay type: functional
NCI-H1650 [14] = experiment: cells; details: Homo sapiens, NCI-H1650, 72 h
Description: Antiproliferative activity against human NCI-H1650 cells incubated for 72 hrs by MTT assay

NCI-H1650 [15] = experiment: Induction of cell cycle arrest in human NCI-H1650 cells assessed as accumulation of cells in G2 phase measured at 4 uM for 24 hrs by annexin V-PI staining based flow cytometric analysis (reference value: 18.00%); assay type: functional
GES1 = experiment: cells; details: Homo sapiens, GES1, 72 h
Description: Antiproliferative activity against human GES1 cells incubated for 72 hrs by MTT assay

NCI-H1650 [16] = experiment: Induction of apoptosis in human NCI-H1650 cells assessed as viable cells measured at 2 uM for 24 hrs by annexin V-PI staining based flow cytometric analysis (reference value: 87.4%); assay type: functional; details: read-out: Activity
NCI-H1650 [17] = experiment: Induction of apoptosis in human NCI-H1650 cells assessed as necrotic cells measured at 2 uM for 24 hrs by annexin V-PI staining based flow cytometric analysis (reference value: 0.008%); assay type: functional
ECa-109 cell line = experiment: cells; details: Homo sapiens, ECa-109, 72 h
Description: Antiproliferative activity against human EC109 cells incubated for 72 hrs by MTT assay

MGC-803 [18] = experiment: cells; details: Homo sapiens, MGC-803, 72 h
Description: Antiproliferative activity against human MGC-803 LSD knock out cells incubated for 72 hrs by MTT assay

NCI-H1650 [19] = experiment: Induction of cell cycle arrest in human NCI-H1650 cells assessed as accumulation of cells in G1 phase measured at 1 uM for 24 hrs by annexin V-PI staining based flow cytometric analysis (reference value: 52.04%); assay type: functional
NCI-H1650 [20] = experiment: Induction of cell cycle arrest in human NCI-H1650 cells assessed as accumulation of cells in S phase measured at 1 uM for 24 hrs by annexin V-PI staining based flow cytometric analysis (reference value: 29.97%); assay type: functional
NCI-H1650 [21] = experiment: Induction of apoptosis in human NCI-H1650 cells assessed as early apoptotic cells measured at 2 uM for 24 hrs by annexin V-PI staining based flow cytometric analysis (reference value: 11.2%); assay type: functional
NCI-H1650 [22] = experiment: Induction of apoptosis in human NCI-H1650 cells assessed as necrotic cells measured at 4 uM for 24 hrs by annexin V-PI staining based flow cytometric analysis (reference value: 0.008%); assay type: functional
NCI-H1650 [23] = experiment: Antitumor activity against human NCI-H1650 cells xenografted in mouse assessed as reduction of tumor weight at 10 mg/kg, po for 21 days relative to control; assay type: ADME, organism-based; set-up: scale not given: the % may be the effect or the level left; details: in vivo, 504 h, time 21 day
NCI-H1650 [24] = experiment: Induction of cell cycle arrest in human NCI-H1650 cells assessed as accumulation of cells in G1 phase measured at 2 uM for 24 hrs by annexin V-PI staining based flow cytometric analysis (reference value: 52.04%); assay type: functional
MGC-803 [25] = experiment: cells; details: Homo sapiens, MGC-803, 72 h; remark: listed apart in the source
Description: Antiproliferative activity against human MGC-803 cells incubated for 72 hrs by MTT assay

NCI-H1650 [26] = experiment: Induction of cell cycle arrest in human NCI-H1650 cells assessed as accumulation of cells in G1 phase measured at 4 uM for 24 hrs by annexin V-PI staining based flow cytometric analysis (reference value: 52.04%); assay type: functional
NCI-H1650 [27] = experiment: Induction of apoptosis in human NCI-H1650 cells assessed as late apoptotic cells measured at 1 uM for 24 hrs by annexin V-PI staining based flow cytometric analysis (reference value: 1.46%); assay type: functional
NCI-H1650 [28] = experiment: Induction of cell cycle arrest in human NCI-H1650 cells assessed as accumulation of cells in S phase measured at 2 uM for 24 hrs by annexin V-PI staining based flow cytometric analysis (reference value: 29.97%); assay type: functional
NCI-H1650 [29] = experiment: Induction of cell cycle arrest in human NCI-H1650 cells assessed as accumulation of cells in G2 phase measured at 2 uM for 24 hrs by annexin V-PI staining based flow cytometric analysis (reference value: 18.00%); assay type: functional
NCI-H1650 [30] = experiment: Induction of apoptosis in human NCI-H1650 cells assessed as early apoptotic cells measured at 1 uM for 24 hrs by annexin V-PI staining based flow cytometric analysis (reference value: 11.2%); assay type: functional
SGC-7901 = experiment: cells; details: Homo sapiens, SGC-7901, 72 h
Description: Antiproliferative activity against human SGC-7901 cells incubated for 72 hrs by MTT assay

NCI-H460 = experiment: cells; details: Homo sapiens, NCI-H460, 72 h
Description: Antiproliferative activity against human NCI-H460 cells incubated for 72 hrs by MTT assay

NCI-H1650 [31] = experiment: Induction of apoptosis in human NCI-H1650 cells assessed as necrotic cells measured at 1 uM for 24 hrs by annexin V-PI staining based flow cytometric analysis (reference value: 0.008%); assay type: functional
[32] = molecular target: T2, MAO-B (amine oxidase [flavin-containing] B) (Homo sapiens, UniProt P27338); experiment: Inhibition of recombinant MAO-B (unknown origin) using luciferin derivative as substrate measured at 1 uM for 60 mins by plate reader analysis relative to control; details: probe luciferin derivative
T2 sequence (P27338 whole entry): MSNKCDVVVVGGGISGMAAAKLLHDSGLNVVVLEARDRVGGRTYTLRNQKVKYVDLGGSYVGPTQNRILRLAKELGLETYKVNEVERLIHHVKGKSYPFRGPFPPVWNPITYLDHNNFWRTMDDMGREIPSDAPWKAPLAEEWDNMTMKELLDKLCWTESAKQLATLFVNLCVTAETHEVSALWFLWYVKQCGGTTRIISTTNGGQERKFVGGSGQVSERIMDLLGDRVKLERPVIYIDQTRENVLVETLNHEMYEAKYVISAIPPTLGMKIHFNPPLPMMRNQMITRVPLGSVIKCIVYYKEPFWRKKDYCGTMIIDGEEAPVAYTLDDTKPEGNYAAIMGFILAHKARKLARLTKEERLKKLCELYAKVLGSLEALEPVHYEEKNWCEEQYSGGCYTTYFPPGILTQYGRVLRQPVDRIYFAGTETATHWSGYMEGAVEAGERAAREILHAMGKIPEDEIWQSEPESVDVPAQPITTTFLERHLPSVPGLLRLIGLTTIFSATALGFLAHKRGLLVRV

[33] = Toxicity in mouse xenografted with human NCI-H1650 cells assessed as change in body weight at 10 to 20 mg/kg, po measured every 4 days for 21 days; assay type: organism-based; details: in vivo, 504 h, dose 10-20 mg/kg, time 21 day

With `CCCSc1nc(Oc2c(OC)cc(CN[C@@H]3C[C@H]3c3ccccc3)cc2OC)c2nnn(Cc3cccc(Cl)c3)c2n1` the viability at 1 µM (NCI-H1650 [1]) was 56.1%, the IC50 (PC-3) was 7.5 µM and the Activity (NCI-H1650 [2]) was 43.26%. For the same molecule, the Activity (NCI-H1650 [3]) was 64%, the IC50 (MCF7) was 13.4 µM and the Activity (NCI-H1650 [4]) was 38.4%. It also gave an Activity (NCI-H1650 [5]) of 43.9%, an Activity (NCI-H1650 [6]) of 6.02% and an inhibition at 1 h, 1 µM [7] of 25.5%. The Activity (NCI-H1650 [8]) was 7.32%, the viability at 4 µM (NCI-H1650 [9]) was 54.3% and the IC50 (A549) was 7.9 µM. For the same molecule, the Activity [10] was “Non-Toxic”, the Activity (NCI-H1650 [11]) was 45.7% and the Activity (NCI-H1650 [12]) was 15.24%. For the same molecule, the Activity (NCI-H1650 [13]) was 44.5%, the IC50 (NCI-H1650 [14]) was 4.3 µM and the Activity (NCI-H1650 [15]) was 7.76%. The IC50 (GES1) was over 20 µM, the viability at 2 µM (NCI-H1650 [16]) was 55.4% and the Activity (NCI-H1650 [17]) was 0.138%. It also gave an IC50 (ECa-109 cell line) of 15.2 µM, an IC50 (MGC-803 [18]) of over 20 µM and an Activity (NCI-H1650 [19]) of 51.44%. It also gave an Activity (NCI-H1650 [20]) of 33.32%, an Activity (NCI-H1650 [21]) of 38.5% and an Activity (NCI-H1650 [22]) of 0.041%. The Activity (NCI-H1650 [23]) was 41.5%, the Activity (NCI-H1650 [24]) was 49.59% and the IC50 (MGC-803 [25]) was 5.1 µM. For the same molecule, the Activity (NCI-H1650 [26]) was 48.98%, the Activity (NCI-H1650 [27]) was 3.6% and the Activity (NCI-H1650 [28]) was 39.81%. It also gave an Activity (NCI-H1650 [29]) of 10.6%, an Activity (NCI-H1650 [30]) of 40.3% and an IC50 (SGC-7901) of 9.5 µM. The IC50 (NCI-H460) was 13.6 µM, the Activity (NCI-H1650 [31]) was 0.022% and the inhibition at 1 h, 1 µM [32] was 52%. The Activity [33] was “Non-Toxic”.

Source: ChEMBL document CHEMBL5360571, “Design, synthesis and in vitro/in vivo anticancer activity of tranylcypromine-based triazolopyrimidine analogs as novel LSD1 inhibitors” (Eur J Med Chem, 2023)
